Consider 34 molecules from patent publication US10577363B2, “Substituted piperidine compounds” (EPIZYME, INC., priority 2014, dated 2020).

For this experiment, the target named is SMYD3 (Homo sapiens (Human), UniProt Q9H7B4). In words: SMYD3 biochemical assay (SPA, 3H-SAM methylation of MEKK2 protein substrate). Conditions: read-out: SMYD3 Biochem IC50 (μM)*. The method, boiled down:
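Native full-length human SMYD3 (E. coli-expressed, tags removed) was preincubated with compound for 30 min at room temperature in 25 mM Tris-Cl pH 8.0, 1 mM TCEP, 0.005% BSG, 0.005% Tween 20. Reaction was started with 3H-SAM plus GST-MEKK2, quenched with 100 uM unlabeled SAM, and read by SPA scintillation counting.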
As to `NCCCC(=O)N1CCC(NC(=O)c2cc(C3CC3)on2)C(F)(F)C1` (stereo not shown) [compound 197, N-(1-(4-aminobutanoyl)-3,3-difluoropiperidin-4-yl)-5-cyclopropylisoxazole-3-carboxamide], the IC50 was > 10 µM. Consider `NCCCC(=O)N1CCC(NC(=O)c2cc(C3CC3)on2)C2(CC2)C1` (stereo not shown) [compound 198, N-(5-(4-aminobutanoyl)-5-azaspiro[2.5]octan-8-yl)-5-cyclopropylisoxazole-3-carboxamide], for which the half-inhibitory concentration (IC50) worked out at 0.83 µM. On to `NCCCC(=O)N1C2CCC1CC(NC(=O)c1cc(C3CC3)on1)C2` (stereo not shown) [compound 199, N-(8-(4-aminobutanoyl)-8-azabicyclo[3.2.1]octan-3-yl)-5-cyclopropylisoxazole-3-carboxamide], for which the IC50 came out at 0.678 µM. With `C[C@H]1CC(NC(=O)c2cc(C3CC3)on2)CCN1C(=O)N1CCC(N)CC1` (stereo partly drawn) [compound 201, N-((2S)-1-(4-aminopiperidine-1-carbonyl)-2-methylpiperidin-4-yl)-5-cyclopropylisoxazole-3-carboxamide], the 50% inhibitory concentration (IC50) is 2.23 µM. `CC1C(NC(=O)c2cc(C3CC3)on2)CCN(C(=O)[C@H]2CC[C@H](N)CC2)C1C` (stereo partly shown) [compound 203, N-(1-((1r,4r)-4-aminocyclohexane-1-carbonyl)-2,3-dimethylpiperidin-4-yl)-5-cyclopropylisoxazole-3-carboxamide]: the IC50 came to 0.379 µM. On to `C[C@H]1CC(NC(=O)c2cc(C3CC3)on2)CCN1C(=O)CC1(CN)CCC1` (stereo partly drawn) [compound 204, N-((2S)-1-(2-(1-(aminomethyl)cyclobutyl)acetyl)-2-methylpiperidin-4-yl)-5-cyclopropylisoxazole-3-carboxamide], for which the concentration for half-maximal inhibition (IC50) turned out to be 4.68 µM. As for `C[C@@H]1CC(NC(=O)c2cc(C3CC3)on2)CCN1C(=O)CC1(CN)CCC1` (stereo partly drawn) [compound 205, N-((2R)-1-(2-(1-(aminomethyl)cyclobutyl)acetyl)-2-methylpiperidin-4-yl)-5-cyclopropylisoxazole-3-carboxamide], the 50% inhibitory concentration (IC50) was 1.99 µM. With `CC1CNCCC1CC(=O)N1CCC(NC(=O)c2cc(C3CC3)on2)C[C@@H]1C` (stereo partly drawn) [compound 206, 5-cyclopropyl-N-((2S)-2-methyl-1-(2-(3-methylpiperidin-4-yl)acetyl)piperidin-4-yl)isoxazole-3-carboxamide], the IC50 is 1.59 µM. For `C[C@H]1CC(NC(=O)c2cc(C3CC3)on2)CCN1C(=O)C1(F)CCNCC1` (stereo partly drawn) [compound 207, 5-cyclopropyl-N-((2S)-1-(4-fluoropiperidine-4-carbonyl)-2-methylpiperidin-4-yl)isoxazole-3-carboxamide], the half-maximal inhibitory concentration (IC50) is 2.6 µM. Regarding `C[C@@H]1C[C@@H](NC(=O)c2cc(C3CC3)on2)CCN1C(=O)CCCN` [compound 208, N-((2R,4S)-1-(4-aminobutanoyl)-2-methylpiperidin-4-yl)-5-cyclopropylisoxazole-3-carboxamide], the 50% inhibitory concentration (IC50) worked out at 3.82 µM. For the molecule `C[C@@H]1C[C@@H](NC(=O)c2cc(C3CC3)on2)CCN1S(=O)(=O)CCCN` [compound 209, N-((2R,4S)-1-((3-aminopropyl)sulfonyl)-2-methylpiperidin-4-yl)-5-cyclopropylisoxazole-3-carboxamide], the 50% inhibitory concentration (IC50) stood at 0.1 µM. Under `NCCCC(=O)N1C2CCCC1CC(NC(=O)c1cc(C3CC3)on1)C2` (stereo not shown) [compound 211, N-(9-(4-aminobutanoyl)-9-azabicyclo[3.3.1]nonan-3-yl)-5-cyclopropylisoxazole-3-carboxamide] stands 5.85 µM; under `C[C@@H]1C[C@H](NC(=O)c2cc(C3CC3)on2)CCN1C(=O)CCCCN` [compound 212, N-((2R,4R)-1-(5-aminopentanoyl)-2-methylpiperidin-4-yl)-5-cyclopropylisoxazole-3-carboxamide], 0.838 µM; under `C[C@@H]1C[C@@H](NC(=O)c2cc(C3CC3)on2)CCN1S(=O)(=O)C1CC1` [compound 213, 5-cyclopropyl-N-((2R,4S)-1-(cyclopropylsulfonyl)-2-methylpiperidin-4-yl)isoxazole-3-carboxamide], > 10 µM. Consider `CNS(=O)(=O)N1CC[C@H](NC(=O)c2cc(C3CC3)on2)C[C@H]1C` [compound 214, 5-cyclopropyl-N-((2R,4S)-2-methyl-1-(N-methylsulfamoyl)piperidin-4-yl)isoxazole-3-carboxamide], for which the IC50 is > 10 µM.

In the case of `COCCS(=O)(=O)N1CC[C@H](NC(=O)c2cc(C3CC3)on2)C[C@H]1C` [compound 215, 5-cyclopropyl-N-((2R,4S)-1-((2-methoxyethyl)sulfonyl)-2-methylpiperidin-4-yl)isoxazole-3-carboxamide], the half-maximal inhibitory concentration (IC50) is > 10 µM.

As for `C[C@@H]1C[C@H](NC(=O)c2cc(C3CC3)on2)CCN1S(=O)(=O)C1CC1` [compound 216, 5-cyclopropyl-N-((2R,4R)-1-(cyclopropylsulfonyl)-2-methylpiperidin-4-yl)isoxazole-3-carboxamide], the 50% inhibitory concentration (IC50) was > 10 µM. Take `CNS(=O)(=O)N1CC[C@@H](NC(=O)c2cc(C3CC3)on2)C[C@H]1C` [compound 217, 5-cyclopropyl-N-((2R,4R)-2-methyl-1-(N-methylsulfamoyl)piperidin-4-yl)isoxazole-3-carboxamide]: the half-inhibitory concentration (IC50) came to 6.76 µM. As for `CC(C)(C)C1CC(NC(=O)c2cc(C3CC3)on2)CCN1C(=O)CCCN` (stereo not shown) [compound 219, N-(1-(4-aminobutanoyl)-2-(tert-butyl)piperidin-4-yl)-5-cyclopropylisoxazole-3-carboxamide], the concentration for half-maximal inhibition (IC50) turned out to be 6.32 µM. Under `NCCCC(=O)N1CC[C@@H](NC(=O)c2cc(C3CC3)on2)[C@H](c2ccccc2)C1` [compound 220, N-((3R,4R)-1-(4-aminobutanoyl)-3-phenylpiperidin-4-yl)-5-cyclopropylisoxazole-3-carboxamide] stands 2.52 µM. As for `NCCCC(=O)N1CC[C@H](NC(=O)c2cc(C3CC3)on2)[C@H](c2ccccc2)C1` [compound 221, N-((3R,4S)-1-(4-aminobutanoyl)-3-phenylpiperidin-4-yl)-5-cyclopropylisoxazole-3-carboxamide], the IC50 was > 10 µM.

Turning to `C[C@H]1CC(NC(=O)c2cc(C3CC3)on2)CCN1C(=O)C12C3C4C1C1C2C3C41N` (stereo partly drawn) [compound 222, N-((2S)-1-(4-aminocubane-1-carbonyl)-2-methylpiperidin-4-yl)-5-cyclopropylisoxazole-3-carboxamide], the IC50 was 4.64 µM. Turning to `C[C@H]1CC(NC(=O)c2cc(C3CC3)on2)CCN1C(=O)CC1(O)CCNCC1` (stereo partly drawn) [compound 223, 5-cyclopropyl-N-((2S)-1-(2-(4-hydroxypiperidin-4-yl)acetyl)-2-methylpiperidin-4-yl)isoxazole-3-carboxamide], the IC50 was 7.19 µM. `C[C@@H]1CC(NC(=O)c2cc(C3CC3)on2)CCN1C(=O)C1(C)CCNCC1` (stereo partly drawn) [compound 224, 5-cyclopropyl-N-((2R)-2-methyl-1-(4-methylpiperidine-4-carbonyl)piperidin-4-yl)isoxazole-3-carboxamide]: the IC50 amounted to 1.42 µM. Consider `C[C@@H]1C[C@@H](NC(=O)c2cc(C3CC3)on2)CCN1C(=O)CC(O)CN` (stereo partly drawn) [compound 225, N-((2R,4S)-1-(4-amino-3-hydroxybutanoyl)-2-methylpiperidin-4-yl)-5-cyclopropylisoxazole-3-carboxamide], for which the half-maximal inhibitory concentration (IC50) was found to be 9.05 µM. As to `C[C@H]1CC(NC(=O)c2cc(C3CC3)on2)CCN1C(=O)CC1CCCC(N)C1` (stereo partly drawn) [compound 226, N-((2S)-1-(2-(3-aminocyclohexyl)acetyl)-2-methylpiperidin-4-yl)-5-cyclopropylisoxazole-3-carboxamide], the IC50 was 2.38 µM. `C[C@H]1C[C@@H](NC(=O)c2cc(C3CC3)on2)CCN1C(=O)CCCCN` [compound 228, N-((2S,4S)-1-(5-aminopentanoyl)-2-methylpiperidin-4-yl)-5-cyclopropylisoxazole-3-carboxamide]: the 50% inhibitory concentration (IC50) turned out to be 1.28 µM. With `CCCS(=O)(=O)N1CC[C@H](NC(=O)c2cc(C3CC3)on2)C[C@@H]1C` [compound 229, 5-cyclopropyl-N-((2S,4S)-2-methyl-1-(propylsulfonyl)piperidin-4-yl)isoxazole-3-carboxamide], the IC50 is 0.863 µM. As to `CC(C)CS(=O)(=O)N1CC[C@H](NC(=O)c2cc(C3CC3)on2)C[C@@H]1C` [compound 230, 5-cyclopropyl-N-((2S,4S)-1-(isobutylsulfonyl)-2-methylpiperidin-4-yl)isoxazole-3-carboxamide], the IC50 stood at 0.472 µM.

For `CCOC(=O)CS(=O)(=O)N1CC[C@H](NC(=O)c2cc(C3CC3)on2)C[C@@H]1C` [compound 231, ethyl 2-(((2S,4S)-4-(5-cyclopropylisoxazole-3-carboxamido)-2-methylpiperidin-1-yl)sulfonyl)acetate], the IC50 worked out at 1.17 µM. In the case of `C[C@H]1C[C@@H](NC(=O)c2cc(C3CC3)on2)CCN1S(=O)(=O)CC(F)(F)F` [compound 232, 5-cyclopropyl-N-((2S,4S)-2-methyl-1-((2,2,2-trifluoroethyl)sulfonyl)piperidin-4-yl)isoxazole-3-carboxamide] it was 3.26 µM; in that of `COCCS(=O)(=O)N1CC[C@H](NC(=O)c2cc(C3CC3)on2)C[C@@H]1C` [compound 233, 5-cyclopropyl-N-((2S,4S)-1-((2-methoxyethyl)sulfonyl)-2-methylpiperidin-4-yl)isoxazole-3-carboxamide], 2.36 µM; in that of `C[C@H]1C[C@@H](NC(=O)c2cc(C3CC3)on2)CCN1S(=O)(=O)c1cn(C)cn1` [compound 234, 5-cyclopropyl-N-((2S,4S)-2-methyl-1-((1-methyl-1H-imidazol-4-yl)sulfonyl)piperidin-4-yl)isoxazole-3-carboxamide], 1.24 µM.

Regarding `C[C@H]1C[C@@H](NC(=O)c2cc(C3CC3)on2)CCN1S(=O)(=O)CCC(F)(F)F` [compound 236, 5-cyclopropyl-N-((2S,4S)-2-methyl-1-((3,3,3-trifluoropropyl)sulfonyl)piperidin-4-yl)isoxazole-3-carboxamide], the 50% inhibitory concentration (IC50) is 1.04 µM.

The term IC50 denotes the midpoint of a concentration-inhibition curve.
